{"source": "patent US20040253259A1", "about": "“Biological compositions and methods for treatment of kidney cancer” (priority 2003, published 2004)", "assay_type_in_all_cases": "in vivo", "key": {"[1]": {"system": "complex cancer cells of kidney", "assay": "Syrian hamster model of human kidney cancer, survival time over 6 months (Example 7)", "settings": "for Number of live animals remaining in the groups after 30 days of treatment: 30 per group", "experimental": "The following example illustrates the benefit of a biological composition of the invention in a Syrian hamster model of human kidney cancer. The survival time of hamsters after tumor injection and treatment was studied.\n(§1) The biological composition comprising 10^8 cells per ml of activated and conditioned yeast cells of the strain Saccharomyces carlsbergensis Hansen strain AS2.189 was prepared by the methods described in Section 5.1 and subsections therein.\nThe animals were prepared in a similar manner as described in Section 6.1.\nThe hamsters injected with tumor cells were immediately divided into 4 experimental groups of ten hamsters per group and one control group. The four experimental groups were triplicated (i.e., using a total of 120 hamsters in the experimental groups). In group 2AY, the hamsters received 0.5 ml of the biological composition once per day. In group 2NY, the hamsters received 0.5 ml of the untreated yeast cells once per day. In group 2FUDR, the hamsters were injected subcutaneously with 0.6 mg of fluoruridine (FUDR) per kg body weight per day. In group 2CK1, the hamsters received 0.5 ml of physiological saline once per day.\n(§2) The hamsters received the biological compositions, untreated yeast cells, FUDR or saline on the same day as the tumor cells were transplanted. The hamsters in group 2CK2 also started receiving saline on the same day as the other four groups. The biological compositions, untreated yeast cells and saline were administered orally by a feeding tube and the FUDR by subcutaneous injection for 30 consecutive days. The hamsters were observed over 6 months from the day of tumor inoculation and survival was recorded. The weight of the hamsters and the weight of the tumor were determined by standard techniques."}, "[2]": {"system": "complex cancer cells of kidney", "assay": "Syrian hamster model of human kidney cancer, tumor growth (Example 6)", "settings": "tumor-bearing hamsters, 30 consecutive days of treatment, sacrificed on 31st day from tumor inoculation", "source_text": "The following example illustrates the benefit of a biological composition of the invention in a Syrian hamster model of human kidney cancer. The growth of the tumor in the hamsters was studied. Detailed description of the use of Syrian hamster to study kidney cancer can be found in, e.g., Liehr et al., 1991, Carcinogenesis 12:385-9, which is incorporated herein by reference in its entirety.\n(§3) Complex cancer cells of kidney closely resembles the human kidney cancer pathology. See e.g., Modern Clinical Experimental Protocols, People's Republic of China Health Publishing House, 1997.\nas §1\nThe animals used to generate the kidney cancer cells for the experiments were Syrian hamsters (obtainable from the Institute of Laboratory Animal Sciences, Chinese Academy of Medical Sciences, Beijing, China), an equal number of male and female, 5 to 6 months old, having an average body weight of 150 to 180 gram. […]\nThe hamsters received the biological compositions, untreated yeast cells, FUDR or saline on the same day as the tumor cells were transplanted. […] The weight of the hamsters and the weight of the tumor were determined by standard techniques."}, "[3]": {"system": "complex cancer cells of kidney", "assay": "Wistar rat model of human kidney cancer, tumor growth (Example 8)", "settings": "tumor-bearing rats, 30 consecutive days of treatment, sacrificed on 31st day from tumor inoculation", "source_text": "(§4) The following example illustrates the benefit of a biological composition of the invention in a Wistar rat model of human kidney cancer. The growth of the tumor in the rats was studied.\nas §3, §1\nThe animals used to generate the kidney cancer cells for the experiments were Wistar rats (obtainable from the Chinese Academy of Military Medical Sciences, Beijing, China) having an average body weight of about 180 to 200 gram. The complex cancer cells of kidney (obtainable from the Shanghai Medical University, Shanghai, China) were generated from a Wistar rat with kidney cancer that was induced by subcutaneous injection of bismaleimidohexane (BHM). […]\nThe rats received the biological compositions, untreated yeast cells, VCR or saline on the same day as the tumor cells were transplanted. […] The weight of the rats and the weight of the tumor were determined by standard techniques."}, "[4]": {"system": "complex cancer cells of kidney", "assay": "Wistar rat model of human kidney cancer, survival over 6 months (Example 9)", "settings": "for Number of live animals remaining in the groups after 30 days of treatment: 30 per group", "experimental": "as §4, §1\nThe animals were prepared in a similar manner as described in Section 8.1.\nThe rats injected with tumor cells were kept for 5 days and then were divided into 4 experimental groups of ten rats per group and one control group. The four experimental groups were triplicated (i.e., using a total of 120 rats in the experimental groups). In group 2AY, the rats received 0.8 ml of the biological composition once per day. In group 2NY, the rats received 0.8 ml of the untreated yeast cells once per day. In group 2VCR, the rats were injected intravenously with 3 mg of […] (VCR) per kg body weight per day. In group 2CK1, the rats received 0.8 ml of physiological saline once per day.\nas §2, with “rats” for “hamsters”, “VCR” for “FUDR”, “intravenous” for “subcutaneous”"}, "[5]": {"settings": "surviving hamsters, observed over 6 months"}, "[6]": {"settings": "surviving rats, observed over 6 months"}}, "data": [{"smiles": "O=c1[nH]c(=O)n([C@H]2C[C@H](O)[C@@H](CO)O2)cc1F", "note": "[FUDR, fluoruridine]", "values": [{"measurement": "Number of live animals remaining in the groups after 30 days of treatment", "setting": "[1]; hamsters, 0 month after cessation of treatment", "result": 30}, {"measurement": "Number of live animals remaining in the groups after 30 days of treatment", "setting": "[1]; hamsters, 1 month after cessation of treatment", "result": 27}, {"measurement": "Number of live animals remaining in the groups after 30 days of treatment", "setting": "[1]; hamsters, 2 months after cessation of treatment", "result": 11}, {"measurement": "Number of live animals remaining in the groups after 30 days of treatment", "setting": "[1]; hamsters, 3 months after cessation of treatment", "result": 5}, {"measurement": "Number of live animals remaining in the groups after 30 days of treatment", "setting": "[1]; hamsters, 4 months after cessation of treatment", "result": 0}, {"measurement": "Number of live animals remaining in the groups after 30 days of treatment", "setting": "[1]; hamsters, 5 months after cessation of treatment", "result": 0}, {"measurement": "Number of live animals remaining in the groups after 30 days of treatment", "setting": "[1]; hamsters, 6 months after cessation of treatment", "result": 0}, {"measurement": "survival outcome during the experiment", "setting": "[1]; hamsters, observed over 6 months", "result": "all died"}, {"measurement": "mean weight of hamsters and standard deviation", "setting": "[1]; [5]", "result": "all animals dead"}, {"measurement": "mean weight of tumor nodules and standard deviation", "setting": "[1]; [5]", "result": "all animals dead"}, {"measurement": "mean weight of hamsters and standard deviation", "setting": "[2]", "result": "116.7 ± 4.9", "unit": "g"}, {"measurement": "mean weight of tumor nodules and standard deviation", "setting": "[2]", "result": "2.7 ± 1.2", "unit": "mg"}]}, {"smiles": "CC[C@]1(O)C[C@@H]2CN(CCc3c([nH]c4ccccc34)[C@@](C(=O)OC)(c3cc4c(cc3OC)N(C)[C@H]3[C@@](O)(C(=O)OC)[C@H](OC(C)=O)[C@]5(CC)C=CCN6CC[C@]43[C@@H]65)C2)C1", "note": "[VCR, vinblastine]", "values": [{"measurement": "mean weight of rats and standard deviation", "setting": "[3]", "result": "189.6 ± 2.5", "unit": "g"}, {"measurement": "mean weight of tumor nodules and standard deviation", "setting": "[3]", "result": "3.7 ± 1.9", "unit": "g"}, {"measurement": "Number of live animals remaining in the groups after 30 days of treatment", "setting": "[4]; rats, 0 month after cessation of treatment", "result": 30}, {"measurement": "Number of live animals remaining in the groups after 30 days of treatment", "setting": "[4]; rats, 1 month after cessation of treatment", "result": 30}, {"measurement": "Number of live animals remaining in the groups after 30 days of treatment", "setting": "[4]; rats, 2 months after cessation of treatment", "result": 30}, {"measurement": "Number of live animals remaining in the groups after 30 days of treatment", "setting": "[4]; rats, 3 months after cessation of treatment", "result": 22}, {"measurement": "Number of live animals remaining in the groups after 30 days of treatment", "setting": "[4]; rats, 4 months after cessation of treatment", "result": 13}, {"measurement": "Number of live animals remaining in the groups after 30 days of treatment", "setting": "[4]; rats, 5 months after cessation of treatment", "result": 0}, {"measurement": "Number of live animals remaining in the groups after 30 days of treatment", "setting": "[4]; rats, 6 months after cessation of treatment", "result": 0}, {"measurement": "survival outcome during the experiment", "setting": "[4]; rats, observed over 6 months", "result": "all died"}, {"measurement": "mean weight of rats and standard deviation", "setting": "[4]; [6]", "result": "all animals dead"}, {"measurement": "mean weight of tumor nodules and standard deviation", "setting": "[4]; [6]", "result": "all animals dead"}]}]}
